Test results: patent EP0413299A1, “Antibiotic composition” (MERCIAN CORPORATION, priority 1989, dated 1991)
Like-named read-outs stand apart in the source and are kept apart here.

Assays:
[1] = X-ray diffraction; format: physicochemical; details: before storage
Description: The X-ray diffractions of the above-obtained samples were measured by using a JDX-8030 X-ray diffraction apparatus (JEOL LTD.) through a Ni-filter with a CuKα x-ray (40KV, 20mA) at a scanning speed of 1.2° /min. (Fig. 1).

[2] = format: physicochemical; details: pH 4
Description: Solubility of the samples was determined by using a […] dissolution apparatus (Toyama Sangyo Co., LTD.) and 200 ml of buffer (adjusted at pH 4.0, prepared by mixing JP dissolution test solution 1 and JP dissolution test solution II) at 37 ± 0.5°C with stirring at 100 rpm paddle rotation. 250 mg (potency equivalent) of sample was added to the test solution, and the solubility of the sample was determined by high performance liquid chromatography under time course investigation. […] However, the solubility decreased immediately after about 5 minutes because of crystallization of the antibiotic. […] After storage for one month at 60°C , the solubility of the granules of Reference 3 was no more than 240μg/ml after five minutes, and became the same as that of the crystalline powders after 60 minutes.

[3] = acidic aqueous solution

4˝-O-(Para-methoxyphenylacetyl)tylosin
X-ray diffraction peaks [1]: High X-ray diffraction peaks were observed
solubility [2]: no more than about a few micrograms per ml
solubility ([3]; pH 2): 1200 µg/mL
solubility ([3]; pH 4): 10 µg/mL
solubility ([3]; pH 5): 2 µg/mL
solubility ([3]; pH 6.8): 0.5 µg/mL
